The values that follow come from patent publication US20260315653A1, “ANTICOAGULANT COMPOSITIONS COMPRISING ANTI-PLATELET AND ANTI-INFLAMMATORY DRUGS AND METHODS AND DEVICES FOR THEIR USE” (Elixir Medical Corporation, priority 2023, published 2026).

Data set [1] concerns blood clotting (citrated sheep blood). In words: Net activated clotting time (net ACT) in citrated sheep blood (Examples 3-5). Also noted: key: seconds; measured ACT minus blood control ACT (165 s). The following applies: single drug, blood control 165 seconds. The protocol: The activated clotting time (ACT) evaluation of anticoagulants was performed in calcium citrate sheep blood and recorded employing the Hemochron® Response device. The ACT measurements were made in citrated sheep blood. 1.9 ml of citrated sheep blood was added to a test tube containing an activator (Hemochron@Celite@ ACT tubes, Lot F8FTE026 from Accriva Diagnostics, Inc.). A target amount of drug solution was then added into the test tube. The test tube was gently swirled so that the blood and drug were well-mixed. 0.1 ml of 0.3M calcium chloride was then added. The tube was gently shaken before being inserted into the Hemochron Response detector. The ACT read out was recorded and reported. The ACT of the control blood in the absence of any drug as first determined to establish a baseline. Here the blood control measured is 165 seconds. Then ACT was determined in the presence of different concentrations of the drug as a single component. In the following study, the net ACT (measured ACT minus blood control ACT) was utilized to visualize the synergistic effect of direct factor Xa inhibitor (Rivaroxaban) and direct factor IIa inhibitor (Argatroban) drug combinations. The figures are presented in ng/mg wherein the density of blood and tissue are approximately the same.
Example 4 is the continuation of example 3, which employed the same method as in example 3. The only difference is that the direct factor Xa inhibitor Edoxaban is used in place of direct factor Xa inhibitor Rivaroxaban.
Example 5 is the continuation of example 3, which employed the same method as in example 3. The only difference is that the direct factor Xa inhibitor Betrixaban is used in place of direct factor Xa inhibitor Rivaroxaban.

Data set [2] is described as follows: In vivo drug release from / drug remaining on implanted stents (HPLC). The arrangement: species or system porcine. The conditions noted are these: 14 mm stents, day 7, n = 3. Here is the method:
The percentage and/or amount of each anticoagulant drug for or by each time point indicated were analyzed for each stent from the different devices in the example and the average drug tissue concentration reported.
Tissue concentrations and the amount of drug released from the stents were measured using stents implanted in porcine arteries for the drugs as indicated. The arteries at the designated time point were excised and a length of stented artery spanning from 5 mm proximal to the stented segment to 5 mm distal to the stented segment was cut. The stented artery was cut longitudinally with surgical scissors. The stents were separated from the tissue. The tissue content of each drug was analyzed using liquid chromatography mass spectroscopy (LCMS) and reported as a mean for each of the timepoint indicated. For drug remaining on each stent, each drug was extracted from the stent, measured using HPLC, and reported as a mean for each of the timepoint indicated as drug released or drug remaining on a stent (where drug remaining is equal to 100% minus the percentage of drug released).

In data set [3] the test system is platelets (Tissue factor generated antiplatelet). The following applies: cited from earlier work.
A further data set deals with porcine coronary artery. Description: In vivo porcine coronary stent implantation: fibrin score and late lumen loss (Examples 25-26). The conditions noted are these: Table 9, day 7. Here is the method:
The drug eluting stent systems containing different anticoagulants prepared as described in Example 11 were evaluated at 3 hours, 6 hours, 1 day, 3 days, 6 days, 7 days, or 28 days following implantation in a porcine coronary artery model.
The porcine model was chosen as this model has been used extensively for stent and angioplasty studies resulting in a large volume of data on the vascular response properties and its correlation to human vascular response (Schwartz et al, Circulation. 2002; 106:1867 1873). The animals were housed and cared for in accordance with the Guide for the Care and Use of Laboratory Animals as established by the National Research Council.
After induction of anesthesia, the left or right femoral artery was accessed using standard techniques and an arterial sheath was introduced and advanced into the artery. Vessel angiography was performed under fluoroscopic guidance, a 7 Fr. guide catheter was inserted through the sheath and advanced to the appropriate location where intracoronary nitroglycerin was administered. An appropriate implantation segment of coronary artery was randomly selected and a 0.014″ guidewire inserted. Quantitative Coronary Angiography (QCA) was performed to document the results. The appropriately size stent was advanced to the deployment site. The balloon was inflated at a steady rate to a pressure sufficient to achieve a balloon to artery ratio of approximately 1.1 to 1.0.
Follow up angiography was performed at the designated timepoint for each of the animals. Late lumen loss (LLL) can be expressed as: […]
The LLL is an indicator of the amount smooth muscle cell (SMC) proliferation or inhibition. It is used to measure efficacy between drugs for SMC proliferation inhibition. The smaller the LLL, the better the efficacy of the drug.
Stented portions of coronary arteries were embedded in methyl methacrylate (MMA), then divided into a target of at least three blocks of approximately similar lengths for histology evaluation. Quantitative histopathological evaluation of stented artery sections was then performed and scored as indicated. For Fibrin formation, scores ranged from 0 to 3, with a score of 0 indicating absent or rare minimal spotting around struts of the stent, a score of 1 indicating the presence of fibrin in small amounts localized only around the struts, a score of 2 indicating the moderately abundant or denser presence of fibrin around and extending beyond the struts, and a score of 3 indicating the presence of abundant and dense fibrin and/or bridging of the fibrin between the struts. The mean score was calculated and reported. The mean of each section was then averaged to provide a mean fibrin score per stent. The smaller the fibrin score, the better efficacy.

The subject of the next data set is Factor IIa. The conditions noted are these: cited from earlier work.
The subject of data set [4] is blood clotting (heparinized sheep blood). In words: Net ACT initiated by platelet activation factor (PAF) and CaCl2 in heparinized sheep blood (Examples 6-11). The following applies: single drug, 0.05 ng/mg; PAF & CaCl2; blood control 235 seconds. Here is the method: In order to examine the potential synergistic effects between anti-inflammatory agents, direct factor Xa inhibitors, direct factor IIa inhibitors, antiplatelets (P2Y12 inhibitor and glycoprotein IIb/IIIa inhibitor, platelet activation factor and CaCl2 were utilized by measuring ACT. Heparinized sheep blood was used to preserve platelet function.
The activated clotting time (ACT) evaluation initiated by platelet activation factor (PAF) and calcium chloride (CaCl2) was performed in heparinized sheep blood and recorded employing the Hemochron® Response device. […] A target amount of drug solution was then added into the test tube. The test tube was gently swirled so that the blood and drug were well-mixed. […] The tube was gently shaken before being inserted into the Hemochron Response detector. The ACT read out was recorded and reported. The ACT of the control heparinized sheep blood in the absence of any drug as first measured to establish a baseline. […] Then ACT was measured in the presence of different concentrations of the drug measured. Selected drug combinations were then tested to evaluate for potential synergy in action between the drug combination. The net ACT (ACT minus blood control ACT) was utilized to visualize the synergistic effect. […] The figures are presented in ng/mg wherein the density of blood and tissue are approximately the same.

In data set [5] the test system is Human Aortic SMC (HAoSMC). Description: HAoSMC cell proliferation assay (CellTiter Aqueous, 72 hours). The data set is classed as cell-based. The protocol:
Cell proliferation assay was done in 96-well format. Low passage cells were trypsinized and seeded in 96 well plates at a density of ~4000 cells/well. The cells are allowed to attach overnight in a CO2 incubator. Next day, the medium was removed and replaced with fresh complete medium containing various concentrations of the test compounds. The final concentration of vehicle (DMSO) in the test medium was 0.1%. After adding test compounds, the cells were incubated for 72 hours. Following this period, the medium was removed and then added fresh medium (100 μl) containing CellTiter Aqueous (1× concentration final) to the wells and incubated for 2 hours in the CO2 incubator. At the end of incubation measured […] with a plate-reader. Controlled incubations with untreated cells and blank incubations containing only medium were included and tested similarly. Based on the cell viability assay the percentage inhibition of the cell proliferation was determined at the different concentrations of the drug tested.
Following the cell proliferation assay as indicated earlier, the percent cell proliferation inhibition was determined, and the assay results plotted to determine the IC50.

The subject of data set [6] is blood clotting (citrated sheep blood). In words: Activated clotting time (ACT) in citrated sheep blood (Example 2). The conditions noted are these: single drug, 0.6 ng/mg. Here is the method:
The activated clotting time (ACT) evaluation of anticoagulants was performed in calcium citrate sheep blood and recorded employing the Hemochron® Response device.
The ACT measurements were made in citrated sheep blood. 1.9 ml of citrated sheep blood was added to a test tube containing an activator (Hemochron@Celite@ ACT tubes, Lot F8FTE026 from Accriva Diagnostics, Inc.). A target amount of drug solution was then added into the test tube. The test tube was gently swirled so that the blood and drug was well-mixed. 0.1 ml of 0.3M calcium chloride was then added. The tube was gently shaken before being inserted into the Hemochron Response detector. The ACT read out was recorded and reported. The ACT of the control blood in the absence of any drug as first determined to establish a baseline. Then ACT was determined in the presence of different concentrations of the drug as a single component. Selected drug combinations were then tested to evaluate for potential synergy in action between the two drugs.

What is called pIC50 is the negative decadic logarithm of the IC50, by convention in mol/L.

Structures are written as SMILES. pIC50: −log10 of the molar value. Values joined by “and” are separate entries in the source; they are usually repeats but may differ in a detail not shown here. Identical values can stand only once.

With `CC1CNc2c(cccc2S(=O)(=O)N[C@@H](CCCNC(=N)N)C(=O)N2CC[C@@H](C)C[C@@H]2C(=O)O)C1` (stereo partly drawn) [Argatroban], the “net ACT” value in data set [1] (0.15 ng/mg) is 42 and 46; in data set [1] (0.3 ng/mg), 54; in data set [4] it was 56 s. In addition, the “Cumulative Percent Release of drug by day 7: Argatroban” value in data set [2] is on record as “at least 96.9%”. For the same compound, the pIC50 in data set [3] is 7.10; with Factor IIa (read-out: IC50 for Anti-Factor IIa) it was 7.68. Besides, the “IC50 for Tissue factor generated antiplatelet” value in data set [3] was 0.04 ng/mg. For the same compound, in the data set on porcine coronary artery, the “LLL / smooth muscle cell proliferation compared to bare metal control stents” value was “larger LLLs compared to control”. In the data set with porcine coronary artery, the “inhibition of fibrin formation compared to bare metal control stents” value was “not effective at inhibiting fibrin formation”. In addition, the “IC50 for Anti-Factor IIa” value with Factor IIa is recorded as 0.0107 ng/mg. Moreover, the HAoSMC proliferation inhibition result in data set [5] was “small to no inhibition”. Also, the ACT in data set [6] is on record as 301.
